Assay results published in ChEMBL document CHEMBL3865818, “4,5-Diaryl-3H-1,2-dithiole-3-thiones and related compounds as combretastatin A-4/oltipraz hybrids: Synthesis, molecular modelling and evaluation as antiproliferative agents and inhibitors of tubulin” (Eur J Med Chem, 2016).

Columns and labels:
[1] = Cell cycle arrest in human KB cells assessed as accumulation at S-phase at 0.2 uM measured after 60 hrs by propidium iodide staining-based flow cytometry (reference value: 12.66%); assay type: functional
[2] = Cell cycle arrest in human KB cells assessed as accumulation at SubG1-phase measured after 36 hrs by propidium iodide staining-based flow cytometry (reference value: 0.63%); assay type: functional
[3] = Cell cycle arrest in human KB cells assessed as accumulation at S-phase at 0.2 uM measured after 36 hrs by propidium iodide staining-based flow cytometry (reference value: 16.51%); assay type: functional
[4] = Cell cycle arrest in human KB cells assessed as accumulation at S-phase at 0.05 uM measured after 12 hrs by propidium iodide staining-based flow cytometry (reference value: 15.5%); assay type: functional
[5] = Cell cycle arrest in human KB cells assessed as accumulation at G2/M-phase at 0.05 uM measured after 48 hrs by propidium iodide staining-based flow cytometry (reference value: 23.36%); assay type: functional
[6] = Cell cycle arrest in human KB cells assessed as accumulation at G0/G1-phase at 0.05 uM measured after 36 hrs by propidium iodide staining-based flow cytometry (reference value: 51.51%); assay type: functional
[7] = Cell cycle arrest in human KB cells assessed as accumulation at S-phase at 0.05 uM measured after 36 hrs by propidium iodide staining-based flow cytometry (reference value: 16.51%); assay type: functional
[8] = Cell cycle arrest in human KB cells assessed as accumulation at G0/G1-phase at 0.2 uM measured after 24 hrs by propidium iodide staining-based flow cytometry (reference value: 48.52%); assay type: functional
[9] = Cell cycle arrest in human KB cells assessed as accumulation at G2/M-phase at 0.2 uM measured after 24 hrs by propidium iodide staining-based flow cytometry (reference value: 28.84%); assay type: functional
[10] = Cell cycle arrest in human KB cells assessed as accumulation at G0/G1-phase at 0.1 uM measured after 36 hrs by propidium iodide staining-based flow cytometry (reference value: 51.51%); assay type: functional
[11] = Cell cycle arrest in human KB cells assessed as accumulation at G0/G1-phase measured after 24 hrs by propidium iodide staining-based flow cytometry (reference value: 48.52%); assay type: functional
[12] = Cell cycle arrest in human KB cells assessed as accumulation at G2/M-phase at 0.05 uM measured after 12 hrs by propidium iodide staining-based flow cytometry (reference value: 30.19%); assay type: functional
[13] = Cell cycle arrest in human KB cells assessed as accumulation at G0/G1-phase at 0.2 uM measured after 12 hrs by propidium iodide staining-based flow cytometry (reference value: 48.26%); assay type: functional
[14] = Cell cycle arrest in human KB cells assessed as accumulation at S-phase at 0.2 uM measured after 48 hrs by propidium iodide staining-based flow cytometry (reference value: 13.32%); assay type: functional
[15] = Cell cycle arrest in human KB cells assessed as accumulation at G0/G1-phase measured after 60 hrs by propidium iodide staining-based flow cytometry (reference value: 63.85%); assay type: functional
[16] = Cell cycle arrest in human KB cells assessed as accumulation at SubG1-phase at 0.2 uM measured after 36 hrs by propidium iodide staining-based flow cytometry (reference value: 0.63%); assay type: functional
[17] = Cell cycle arrest in human KB cells assessed as accumulation at SubG1-phase at 0.05 uM measured after 24 hrs by propidium iodide staining-based flow cytometry (reference value: 0.76%); assay type: functional
[18] = Cell cycle arrest in human KB cells assessed as accumulation at SubG1-phase at 0.2 uM measured after 24 hrs by propidium iodide staining-based flow cytometry (reference value: 0.76%); assay type: functional
[19] = Cell cycle arrest in human KB cells assessed as accumulation at G0/G1-phase at 0.05 uM measured after 60 hrs by propidium iodide staining-based flow cytometry (reference value: 63.85%); assay type: functional
[20] = Cell cycle arrest in human KB cells assessed as accumulation at S-phase measured after 24 hrs by propidium iodide staining-based flow cytometry (reference value: 16.96%); assay type: functional
[21] = Antiproliferative activity against human SGC7901 cells measured after 72 hrs by MTT assay; assay type: functional, cell-based; conditions: SGC-7901, 72 h
[22] = Cell cycle arrest in human KB cells assessed as accumulation at G0/G1-phase at 0.2 uM measured after 48 hrs by propidium iodide staining-based flow cytometry (reference value: 58.26%); assay type: functional
[23] = Cell cycle arrest in human KB cells assessed as accumulation at G0/G1-phase measured after 36 hrs by propidium iodide staining-based flow cytometry (reference value: 51.51%); assay type: functional
[24] = Cell cycle arrest in human KB cells assessed as accumulation at G2/M-phase at 0.05 uM measured after 36 hrs by propidium iodide staining-based flow cytometry (reference value: 27.34%); assay type: functional
[25] = Inhibition of porcine brain tubulin polymerization measured after 60 mins by fluorescence analysis; set-up: species or system Sus scrofa
[26] = Cell cycle arrest in human KB cells assessed as accumulation at G2/M-phase at 0.1 uM measured after 24 hrs by propidium iodide staining-based flow cytometry (reference value: 28.84%); assay type: functional
[27] = Cell cycle arrest in human KB cells assessed as accumulation at SubG1-phase at 0.2 uM measured after 60 hrs by propidium iodide staining-based flow cytometry (reference value: 1.24%); assay type: functional
[28] = Cell cycle arrest in human KB cells assessed as accumulation at SubG1-phase measured after 60 hrs by propidium iodide staining-based flow cytometry (reference value: 1.24%); assay type: functional
[29] = Cell cycle arrest in human KB cells assessed as accumulation at SubG1-phase at 0.1 uM measured after 12 hrs by propidium iodide staining-based flow cytometry (reference value: 1.23%); assay type: functional
[30] = Cell cycle arrest in human KB cells assessed as accumulation at SubG1-phase at 0.2 uM measured after 12 hrs by propidium iodide staining-based flow cytometry (reference value: 1.23%); assay type: functional
[31] = Cell cycle arrest in human KB cells assessed as accumulation at G2/M-phase at 0.1 uM measured after 12 hrs by propidium iodide staining-based flow cytometry (reference value: 30.19%); assay type: functional
[32] = Cell cycle arrest in human KB cells assessed as accumulation at G2/M-phase at 0.2 uM measured after 36 hrs by propidium iodide staining-based flow cytometry (reference value: 27.34%); assay type: functional
[33] = Cell cycle arrest in human KB cells assessed as accumulation at S-phase at 0.1 uM measured after 36 hrs by propidium iodide staining-based flow cytometry (reference value: 16.51%); assay type: functional
[34] = Antiproliferative activity against human HT1080 cells measured after 72 hrs by MTT assay; assay type: functional, cell-based; conditions: HT-1080, 72 h
[35] = Cell cycle arrest in human KB cells assessed as accumulation at S-phase at 0.2 uM measured after 12 hrs by propidium iodide staining-based flow cytometry (reference value: 15.5%); assay type: functional
[36] = Cell cycle arrest in human KB cells assessed as accumulation at S-phase at 0.1 uM measured after 60 hrs by propidium iodide staining-based flow cytometry (reference value: 12.66%); assay type: functional
[37] = Cell cycle arrest in human KB cells assessed as accumulation at G2/M-phase measured after 24 hrs by propidium iodide staining-based flow cytometry (reference value: 28.84%); assay type: functional

## COc1ccc(-c2ssc(=O)c2-c2cc(OC)c(OC)c(OC)c2)cc1N
[1]
  Activity: 6.33%
[2]
  Activity: 25.8%
[3]
  Activity: 15.9%
[4]
  Activity: 16.4%
[5]
  Activity: 18.5%
[6]
  Activity: 50.3%
[7]
  Activity: 11.7%
[8]
  Activity: 6.24%
[9]
  Activity: 55.8%
[10]
  Activity: 25.5%
[11]
  Activity: 6.89%
[12]
  Activity: 30.5%
[13]
  Activity: 1.63%
[14]
  Activity: 13.1%
[15]
  Activity: 6.81%
[16]
  Activity: 33.2%
[17]
  Activity: 6.04%
[18]
  Activity: 11.1%
[19]
  Activity: 37.8%
[20]
  Activity: 26.9%
[21]
  IC50: 172 nM
[22]
  Activity: 11.7%
[23]
  Activity: 14.4%
[24]
  Activity: 23%
[25]
  IC50: 4440 nM
[26]
  Activity: 41.8%
[27]
  Activity: 55.3%
[28]
  Activity: 58.1%
[29]
  Activity: 2.67%
[30]
  Activity: 2.22%
[31]
  Activity: 62.8%
[32]
  Activity: 34.7%
[33]
  Activity: 14.5%
[34]
  IC50: 147 nM
[35]
  Activity: 22.8%
[36]
  Activity: 9.61%
[37]
  Activity: 52.1%
